Measurements as given in paper PMC7139479, “Insights into Interactions of Flavanones with Target Human Respiratory Syncytial Virus M2-1 Protein from STD-NMR, Fluorescence Spectroscopy, and Computational Simulations” (International Journal of Molecular Sciences, 2020).

What was measured:
hRSV M2-1 protein [1] = target: T1, hRSV M2-1 protein (Human respiratory syncytial virus A, UniProt P04545); experiment: STD-NMR of M2-1/flavanone binding; parameters: species or system human Respiratory Syncytial Virus (hRSV A2 strain); conditions: 298 K, 50 µM protein, 250 µM flavonoid
T1 construct: allowing the expression of the full-length M2-1 with N-terminal fused to a His6-tag; made in house; host or cells: Escherichia coli BL21 RIL
T1 sequence (P04545 whole entry, the tested form may be a part): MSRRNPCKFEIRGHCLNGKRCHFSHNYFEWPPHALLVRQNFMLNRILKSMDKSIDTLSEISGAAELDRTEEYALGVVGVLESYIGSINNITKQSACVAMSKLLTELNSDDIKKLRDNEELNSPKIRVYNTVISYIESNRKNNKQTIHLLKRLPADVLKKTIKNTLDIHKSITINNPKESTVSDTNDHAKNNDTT
Protocol: STD-NMR experiments were performed on a Bruker Avance III 600.13 MHz equipped with a triple resonance 5 mm cryoprobe, having the pulse field gradient along the Z axis. All data were analyzed with Bruker Topspin v3.5. A total concentration of 50 μM hRSV M2-1 protein in 50 mM K2HPO4/KH2PO4 buffer (pH 7.4) containing 150 mM NaCl and 1 mM DTT at 80/20% H2O/D2O was used for all measurements. The concentration of the flavonoids used in binding experiments was of 250 μM. The on- and off-resonance frequencies were set at −0.5 and 40 ppm, providing the best profile of protein saturation and STD effect. […] A total of 16 scans with 32 loop counters were collected with 4 dummy scans. For the suppression of the protein signals, it was applied a spinlock filter of 30 ms with 0.776 W. All measurements were performed at 298 K (25 °C) and it was used a flavonoid stock solution solubilized in deuterated DMSO-d6.
The STD effect ( ISTD ) on a given proton of the ligand was calculated according to the following equation [43, 44]:(1) ISTD=Ioff-resonance−Ion-resonance/I off-resonance where Ion-resonance and Ioff-resonance are the intensities of the ligand signals in the on- and off-resonance spectrum, respectively. The proton of the flavonoid with the highest STD effect (magnetization transfer maximum) was equal to 100% and the others protons were normalized according to this signal. The identification of ^1H NMR signals of the flavonoids at buffer solution [50 mM K2HPO4/KH2PO4 buffer (pH 7.4) at 80/20% H2O/D2O containing 150 mM NaCl and 1 mM DTT] was assisted by the resonance assignment from Chemical Book database (www.chamicalbook.com) under access code 520-33-2.

hRSV M2-1 protein [2] = target: T1, hRSV M2-1 protein; experiment: Fluorescence quenching of M2-1 by flavanones (double-log plot, thermodynamic analysis); type: binding, human Respiratory Syncytial Virus (hRSV A2 strain); conditions: for Enthalpy change ΔH: Van't Hoff equation from Kb at 288 and 298 K
Protocol: The fluorescence measurements were performed on a steady-state ISS-PC1 spectrofluorimeter with temperature control (thermal bath Neslab RTE-221) and equipped with quartz cuvette of 10 mm optical path length. The excitation and emission bandwidths were set at 4 and 8 nm, respectively. The excitation wavelength was of 290 nm and the emission spectra were reported between 295 and 500 nm with 10 accumulations for each collected point. The emission spectrum was corrected for the background fluorescence from the buffer solution and for inner filter effect promoted by the flavonoids. The protein-ligand interaction measures were performed by collecting the fluorescence spectra of the protein in the absence of ligand (2 mL at 6 μM) and checking for quenching of intensities after addition of increasing concentrations of flavonoids, at 288 and 298 K (15 and 25 °C). The flavonoids’ concentrations varied from 0 to 26 μM in the final solution, with the emission of the hRSV M2-1 protein analyzed at 320 nm.
For the data analysis, it was hypothesized that the binding sites of the flavonoids on the M2-1 protein are equal and independent. Thus, the binding constant (Kb) and the number of binding sites (n) can be calculated using the following equation [46]:(2) log(F0−F/F)=n·logKb+n·log1/([LT]−(F0−F/F0)[PT]) where F0 and F are the fluorescence intensity of the M2-1 protein in the absence and in the presence of the flavonoids, respectively. [PT] and [LT] is the total concentration of M2-1 protein and ligand (flavonoids), respectively. The values of Kb and n for the M2-1/flavonoids complex are obtained from the ordinate and slope of the linear fitting from the double-log plot log((F0 − F)/F) & log(1/([LT] − ((F0 − F)/F0)[PT])), respectively.
In order to investigate the driving forces responsible for the binding of the flavonoids hesperetin and hesperidin to the M2-1 protein, the enthalpy change (ΔH) of this interaction was calculated from the Van’t Hoff equation:(3) lnKb2/Kb1=−ΔH/R(1/T2−1/T1) where Kb1 and Kb2 are binding constants at the absolute temperatures T1 and T2, which were 288 and 298 K (15 and 25 °C), respectively. R corresponds to the universal gas constant ([…]). The Gibbs free energy (ΔG) and entropy changes (ΔS) for the M2-1/flavonoids complex were calculated from the following equations:(4) ΔG=−R·T·lnKb (5) ΔS=ΔH−ΔG/T

RSV = system: RSV; parameters: method as in earlier work; conditions: against RSV; ref 28 (Kaul et al., 1985); cited from earlier work

COc1ccc([C@@H]2CC(=O)c3c(O)cc(O[C@@H]4O[C@H](CO[C@@H]5O[C@@H](C)[C@H](O)[C@@H](O)[C@H]5O)[C@@H](O)[C@H](O)[C@H]4O)cc3O2)cc1O [HSD, Hesperidin]
STD effect, 1H protons on B-ring (normalized to highest signal) (hRSV M2-1 protein [1]): 96% | Gibbs free energy change ΔG (hRSV M2-1 protein [2]; 288 K): -21.8 kJ/mol | Number of binding sites n (hRSV M2-1 protein [2]; 288 K): 0.89 | T·ΔS (hRSV M2-1 protein [2]; 288 K): 14.6 kJ/mol | Gibbs free energy change ΔG (hRSV M2-1 protein [2]; 298 K): -22.6 kJ/mol | Number of binding sites n (hRSV M2-1 protein [2]; 298 K): 0.93 | T·ΔS (hRSV M2-1 protein [2]; 298 K): 15.5 kJ/mol | Enthalpy change ΔH (hRSV M2-1 protein [2]): -7.11 kJ/mol

COc1ccc([C@@H]2CC(=O)c3c(O)cc(O)cc3O2)cc1O [HST, Hesperetin]
STD effect, 1H protons on B-ring (normalized to highest signal) (hRSV M2-1 protein [1]): 72% | STD effect, hydrogens on A-ring (normalized to highest signal) (hRSV M2-1 protein [1]): 100% | Gibbs free energy change ΔG (hRSV M2-1 protein [2]; 288 K): -27.2 kJ/mol | Number of binding sites n (hRSV M2-1 protein [2]; 288 K): 1.05 | T·ΔS (hRSV M2-1 protein [2]; 288 K): -94.1 kJ/mol | Gibbs free energy change ΔG (hRSV M2-1 protein [2]; 298 K): -23.8 kJ/mol | Number of binding sites n (hRSV M2-1 protein [2]; 298 K): 1.04 | T·ΔS (hRSV M2-1 protein [2]; 298 K): -97.5 kJ/mol | Enthalpy change ΔH (hRSV M2-1 protein [2]): -121 kJ/mol | Anti-replicative activity (RSV): 88%
